Measured values reported in article PMC8333425, “Discovery of a dual Ras and ARF6 inhibitor from a GPCR endocytosis screen” (Nature Communications, 2021).
“And” between values parts separate entries of the source, which are not always exact repeats. Identical values can stand only once.

Target: T1, ARF1 (Homo sapiens, UniProt P84077)
T1 construct: expressed in transfected cells; host or cells: HEK293SL
Assay: GST-GGA3-PBD pull-down of AT1R-mediated HA-ARF1 activation
Assay type: cell-based
Conditions: for ARF1-GTP/ARF1: GST-GGA3-PBD, listed as Comp 21
Description: Activation of ARF1, ARF6, Ras, and Rho were assessed by using GST pull-down assays. HEK293SL cells were transiently transfected with 3 µg AT1R-flag only (Ras and Rho) or along with 500 ng HA-ARF6 (ARF6) or HA-ARF1 (ARF1). Forty-eight hours later, the HEK293 or MDA-MB-231 cells were serum-starved for 4 h with DMEM containing 20 mM HEPES then pretreated with DMSO or Rasarfin (50 µM) for 30 min. Cells were then stimulated with 1 µM AngII or 100 ng/ml EGF for 0 and 2 min. Cells were then washed once with ice-cold PBS and lysed for 30 min at 4 °C in 300 µl of lysis buffer (pH 7.5, 50 mM Tris-HCl, 140 mM NaCl, 5 mM MgCl2, 10% glycerol (v/v), 1% Nonidet P-40 (v/v), 1 mM dithiothreitol) supplemented with protease inhibitors (1 mM phenylmethyl-sulfonyl fluoride (PMSF), 10 µg/ml leupeptin, 5 µg/ml aprotinin, 1 µg/ml pepstatin A) and phosphatase inhibitors (20 mM NaF, 0.025 mM pervanadate). The samples were cleared by centrifugation and 30 µl (cell lysates) was kept for assessing total protein contents. The remaining was transferred to fresh tubes with 20 µg of either GST, GST-GGA3-PBD, GST-Raf1-RBD or GST-Rhotekin-RBD coupled to glutathione resin and rotated for 1–2 h at 4 °C. Beads were washed twice with lysis buffer and proteins were eluted in 25 μl 2x laemmli buffer by heating at 65 °C for 15 min. Proteins were resolved on 14% SDS-PAGE, transferred to nitrocellulose membranes, and immunoblotted for HA, Ras, RhoA, H-Ras, or ARF6. ImageLab 5.2 software was used to quantify the digital blots as fold of the amount of pulled down protein over total protein. Uncropped coomassie gels and immunoblots are provided in the Source Data file.

T1 sequence (P84077 whole entry): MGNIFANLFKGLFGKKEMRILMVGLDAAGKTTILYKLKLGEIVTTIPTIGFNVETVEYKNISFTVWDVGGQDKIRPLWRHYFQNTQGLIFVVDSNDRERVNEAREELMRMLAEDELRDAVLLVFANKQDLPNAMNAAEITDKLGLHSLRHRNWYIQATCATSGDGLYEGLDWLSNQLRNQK

With `CC(C)C(=O)N1CCN(c2ccc(NC(=O)c3cc4ccccc4o3)cc2Cl)CC1` [Compound 21] the “effect on AT1R-dependent ARF1 activation” value (50 μM) was “no effect”, the ARF1-GTP/ARF1 (AngII) was 0.143 and 0.2667 and 0.2223 and the ARF1-GTP/ARF1 (Ctrl) was 0.07407 and 0.04303 and 0.06878.
